Like-named read-outs stand apart in the source and are kept apart here.
Key:
[1] = system: MDA-MB-231 cells; assay: Sulforhodamine B antiproliferative assay, MDA-MB-231; type: cell-based, human; settings: for IC50: sulforhodamine B assay, 48 h of treatment, read-out: IC50 MDA-MDB-231 (A)
Procedure: (§1) The antiproliferative effect of the isolated compounds (1–11) was investigated by the sulforhodamine B assay against human triple-negative breast cancer cell lines (MDA-MB-468 and MDA-MB-231) and breast ductal carcinoma cells (MCF-7) and the non-tumorigenic fibroblast (HFF-1) and breast cell lines (MCF12A). The IC50 values were determined after 48 h of treatment (Table 1).
(§2) Human breast adenocarcinoma MDA-MB-231, MDA-MB-468, and MCF-7 cell lines and non-tumorigenic foreskin fibroblast (HFF-1) and breast (MCF12A) cell lines were purchased from American Type Culture Collection (ATCC, Rockville, MD, USA). All cancer cell lines, except MCF12A, were routinely cultured in RPMI-1640 medium with glutamine from Corning (VWR, Carnaxide, Portugal) supplemented with 10% fetal bovine serum (FBS) from Biowest (Labclinics, Barcelona, Spain). MCF12A cells were cultured in a 1:1 mixture of Dulbecco’s modified Eagle’s medium and Ham’s F12 medium, 20 ng/mL human epidermal growth factor, 100 ng/mL cholera toxin, 0.01 mg/mL bovine insulin, and 500 ng/mL hydrocortisone and supplemented with 10% FBS. All cells were maintained in a humidified incubator at 37 °C with 5% CO2. All cells were routinely tested for mycoplasma contamination using the MycoAlertTM PLUS detection kit (Lonza, Basel, Switzerland).
(§3) Human cell lines were seeded in 96-well plates at a density of 5.0 × 10^3 (MDA-MB-231, MCF-7, HFF-1, and MCF12A) and 7.5 × 10^3 (MDA-MB-468) cells/well and allowed to adhere for 24 h. Cells were treated with serial dilutions of compounds (ranging from 0.1 to 40 μM) for an additional 48 h. Effect on cell proliferation was measured by sulforhodamine B assay, as described in [33], and the half-maximal inhibitory concentration (IC50) was then determined for each cell line using the GraphPad Prism software version 7.0 (La Jolla, CA, USA).

[2] = system: MCF12A cells; assay: Sulforhodamine B antiproliferative assay, non-tumorigenic breast MCF12A; type: cell-based; settings: Homo sapiens, MCF-12A, 48 h of treatment, read-out: IC50 MCF12A (D)
Procedure: as §1, §2, §3

[3] = system: MDA-MB-231 cells; assay: Annexin V-FITC apoptosis assay; type: cell-based, human; settings: 16 µM, 48 h, vs vehicle control
Procedure: Figure 2 Compound 7 induced cell cycle arrest, apoptosis, and ROS production, in MDA-MB-231 cells. […] (B) Effect of 16 µM of compound 7 on cell cycle progression after 48 h of treatment in MDA-MB-231 cells; the percentage of cells in each phase of the cell cycle was analyzed by flow cytometry, using PI; data are mean ± SEM of three independent experiments. […] (C) Effect of 16 µM of compound 7 on apoptosis after 48 h of treatment; the percentage of Annexin-positive cells was analyzed by flow cytometry using PI and Annexin-V staining; data are mean ± SEM of three independent experiments. […] (D) Effect of 16 µM of compound 7 on mitochondrial ROS generation after 24 h of treatment; data are mean ± SEM of three independent experiments (* p < 0.05, unpaired Student’s t-test). […] (F) The graph represents the quantification of protein expression levels relative to DMSO; data are mean ± SD of three independent experiments. The ability of compound 7 to induce apoptosis in this cell line was also assessed by cytometry, using the Annexin V-FITC assay after 48 h of treatment. […]
The analyses were performed basically as described in [33]. […] The cells were then analyzed by flow cytometry, and cell cycle phases were identified and quantified using the FlowJo × 10.0.7 Software (Treestar, Ashland, OR, USA). […]

[4] = system: HFF-1 cells; assay: Sulforhodamine B antiproliferative assay, non-tumorigenic fibroblast HFF-1; type: cell-based; settings: Homo sapiens, 48 h of treatment, read-out: IC50 HFF-1 (E)
Procedure: as §1, §2, §3

[5] = system: MDA-MB-231 cells; assay: Mitochondrial ROS generation (MitoSOX); type: cell-based, human; settings: 16 µM, 24 h
Procedure: Figure 2 Compound 7 induced cell cycle arrest, apoptosis, and ROS production, in MDA-MB-231 cells. […] (B) Effect of 16 µM of compound 7 on cell cycle progression after 48 h of treatment in MDA-MB-231 cells; the percentage of cells in each phase of the cell cycle was analyzed by flow cytometry, using PI; data are mean ± SEM of three independent experiments. […] (C) Effect of 16 µM of compound 7 on apoptosis after 48 h of treatment; the percentage of Annexin-positive cells was analyzed by flow cytometry using PI and Annexin-V staining; data are mean ± SEM of three independent experiments. […] (F) The graph represents the quantification of protein expression levels relative to DMSO; data are mean ± SD of three independent experiments. The ability of compound 7 to induce apoptosis in this cell line was also assessed by cytometry, using the Annexin V-FITC assay after 48 h of treatment. […]
For mitochondrial ROS generation assessment, MDA-MB-231 cells were seeded in 6-well plates at a density of 1.5 × 10^5 cells/well for 24 h, followed by treatment with 16 µM of compound 7 for an additional 24 h. Thereafter, cells were incubated with 3 μM MitoSOX (Thermo Fisher Scientific, Invitrogen, Portugal) for 30 min at 37 °C and analyzed by flow cytometry.

[6] = system: breast cancer cell lines (MDA-MB-231, MDA-MB-468, MCF-7); assay: Sulforhodamine B assay, all breast cancer cell lines; type: cell-based; settings: Homo sapiens; range over the four alkaloids and MDA-MB-231, MDA-MB-468, MCF-7; read-out: IC50 values against all breast cancer cell lines
Procedure: Aiming to find Amaryllidaceae alkaloids against breast cancer, including the highly aggressive triple-negative breast cancer, the phytochemical study of Pancratium maritimum was carried out. Several Amaryllidaceae-type alkaloids, bearing scaffolds of the haemanthamine-, homolycorine-, lycorine-, galanthamine-, and tazettine-type were isolated (3–11), along with one alkamide (2) and a phenolic compound (1). The antiproliferative effect of compounds (1–11) was evaluated by the sulforhodamine B assay against triple-negative breast cancer cell lines MDA-MB-231 and MDA-MB-468, breast cancer cells MCF-7, and the non-malignant fibroblast (HFF-1) and breast (MCF12A) cell lines. […] The homolycorine-type alkaloid 7 was selected for further investigation in MDA-MB-231 cells. In the annexin-V assay, compound 7 increased cell death by apoptosis, which was substantiated, in western blot analyses, by the increased expression of the pro-apoptotic protein Bax, and the decreased expression of the anti-apoptotic protein Bcl-xL. Consistently, it further stimulated mitochondrial reactive oxygen species (ROS) generation. The antiproliferative effect of compound 7 was also associated with G2/M cell cycle arrest, which was supported by an increase in the p21 protein expression levels.
as §3

Question: Which “effect of compound alone on cancer cell growth” value ([1]; 1.5 µM) does the source give for `COc1cc2c(cc1O)C(=O)OC1[C@@H](O)C=C3CCN(C)C3[C@]21O` (stereo partly drawn) [Compound 7, 2α-10bα-dihydroxy-9-O-demethylhomolycorine] here?
Answer: The value was “no significant effect on cancer cell growth”.

Question: And the IC50 ([1]; Homo sapiens, MDA-MB-231, 48 h)?
Answer: Its IC50 is 8.02 µM.

Question: What about the “SI E/A” value ([1]; selectivity index, HFF-1 vs MDA-MB-231) of the same molecule?
Answer: Its value is 1.65.

Question: What about the “SI D/A” value ([1]; selectivity index, MCF12A vs MDA-MB-231) of the same molecule?
Answer: The value was 0.69.

Question: What about the IC50 [1] of the same molecule?
Answer: The IC50 was 8 ± 1.68 µM.

Question: What about the IC50 [2] of the same molecule?
Answer: The IC50 was 5.6 ± 0.8 µM.

Question: What about the “percentage of apoptotic (Annexin-positive) cells” value [3] of the same molecule?
Answer: The value was “significant increase in the percentage of apoptotic cells”.

Question: What about the IC50 [4] of the same molecule?
Answer: The IC50 was 13.3 ± 3.28 µM.

Question: What about the “mitochondrial ROS production” value [5] of the same molecule?
Answer: Its value is “increased ROS production”.

Question: And the IC50 [6]?
Answer: Its IC50 is 0.73 to 16.3 µM.

— publication PMC9501014, “Amaryllidaceae-Type Alkaloids from Pancratium maritimum: Apoptosis-Inducing Effect and Cell Cycle Arrest on Triple-Negative Breast Cancer Cells” (Molecules, 2022)
